Assay results published in US20200297746A1, “COMPOSITION FOR REDUCING WEIGHT AND LOWERING LIPID, PREPARATION METHOD THEREFOR AND USE THEREOF” (CATCH BIO-SCIENCE & TECHNOLOGY CO., LTD., priority 2017, published 2020).

What was measured:
[1] = test system: obesity model rats fed with the high-fat feed; assay: Weight reducing effect in rats fed high-fat feed, 7 weeks of administration via lavage; assay type: in vivo, male Spague-Dawlay (SD) Rats; conditions: high-fat feed SD rats, 80 mg/kg via lavage once daily for 7 weeks, x ± s, n = 10
From the text: The feed is commercially available. The high-fat feed comprises 75% base feed, 2% cholesterol, 0.5% sodium cholate, 15% lard, and 7.5% egg yolk. 150 male Spague-Dawlay (SD) Rats of clean grade, each aged 4 weeks and weighed 150-180 g, are provided by Shanghai Lingchang Biotechnology Co., Ltd. The rats are fed in separate plastic cages, given free access to water and feed for 7 days to adapt to the environment, and then quarantined. 140 rats of similar weight are selected from the 150 rats, randomly divided into 14 groups, with 10 rats in each group, including experimental groups 1-8, comparative experiment groups 1-4, a model control group and a blank control group. Rats in the blank control group are fed with the base feed, and rats in other groups are fed with the high-fat feed. Rats in the experimental groups 1-8 are respectively administered via lavage with 80 mg/kg of the pharmaceutical compositions prepared in Examples 1-8; rats in the comparative experiment groups 1-4 are respectively administered via lavage with 80 mg/kg of phloridzin, 80 mg/kg of the extract from Curcuma longa L., 80 mg/kg of epigallocatechin gallate and 80 mg/kg of the extract from […] folium; and rats in the model control group and the blank control group are administered via lavage with equivalent amounts of saline. Rats in each group receive administration once daily for 7 continuous weeks. (1) After 7 weeks of administration, the weight and weight gain of rats in each group are observed and recorded; (2) Rats are anesthetized with ether, and fat pads surrounding the genitalia and kidney and the fat of the omentum are separated and weighed. A fat-to-weight ratio is calculated according to the following equation: fat-to-weight ratio (%)=(weight of fat surrounding the genitalia+weight of fat surrounding kidney+weight of fat of the omentum)/body weight×100%; Data processing is performed using SPSS 20.0 software. Differences between the groups are analyzed using a single-factor variance analysis.

[2] = test system: hyperlipemia model rats fed with the high-fat feed; assay: Blood lipid lowering effect in rats fed high-fat feed, serum biochemical parameters by enzymatic method; assay type: in vivo, male Spague-Dawlay (SD) Rats; conditions: high-fat feed SD rats, 80 mg/kg via lavage once daily for 7 weeks, x ± s, n = 10
From the text: The feed is commercially available. The high-fat feed comprises 75% base feed, 2% cholesterol, 0.5% sodium cholate, 15% lard, and 7.5% egg yolk. 150 male Spague-Dawlay (SD) Rats of clean grade, each aged 4 weeks and weighed 150-180 g, are provided by Shanghai Lingchang Biotechnology Co., Ltd. The rats are fed in separate plastic cages, given free access to water and feed for 7 days to adapt to the environment, and then quarantined.
140 rats of similar weight are selected from the 150 rats, randomly divided into 14 groups, with 10 rats in each group, including experimental groups 1-8, comparative experiment groups 1-4, a model control group and a blank control group. Rats in the blank control group are fed with the base feed, and rats in other groups are fed with the high-fat feed.
Rats in the experimental groups 1-8 are respectively administered via lavage with 80 mg/kg of the pharmaceutical compositions prepared in Examples 1-8; rats in the comparative experiment groups 1-4 are respectively administered via lavage with 80 mg/kg of phloridzin, 80 mg/kg of the extract from Curcuma longa L., 80 mg/kg of epigallocatechin gallate and 80 mg/kg of the extract from sennae folium; and rats in the model control group and the blank control group are administered via lavage with equivalent amounts of saline.
Rats in each group receive administration once daily for 7 continuous weeks.
(3) After 7 weeks of administration, blood are collected from orbital posterior venous plexus of the rats and analyzed with an enzymatic method on a full-automatic biochemical analyzer to quantitatively determine levels of triglycerides (TG), total cholesterol (TC), high density lipoprotein cholesterol (HDL-C), and low density lipoprotein cholesterol (LDL-C) in serum.
Data processing is performed using SPSS 20.0 software. Differences between the groups are analyzed using a single-factor variance analysis.

SMILES | Body weight gain [1] | Fat-to-weight ratio [1] | HDL-C [2] | LDL-C [2] | TC [2] | TG [2]
O=C(CCc1ccc(O)cc1)c1c(O)cc(O)cc1O[C@@H]1O[C@H](CO)[C@@H](O)[C@H](O)[C@H]1O [Comparative experiment Group 1, phloridzin] | 161.35 ± 20.01 g | 5.87 ± 0.72 % | 0.72 ± 0.10 mmol/L | 0.49 ± 0.10 mmol/L | 2.21 ± 0.51 mmol/L | 1.56 ± 0.39 mmol/L
O=C(O[C@@H]1Cc2c(O)cc(O)cc2O[C@@H]1c1cc(O)c(O)c(O)c1)c1cc(O)c(O)c(O)c1 [Comparative experiment Group 3, epigallocatechin gallate] | 189.76 ± 22.25 g | 7.48 ± 0.53% | 0.59 ± 0.12 mmol/L | 0.55 ± 0.12 mmol/L | 2.55 ± 0.43 mmol/L | 1.77 ± 0.41 mmol/L
